Paper PMC12679645, “Diversifying the triquinazine scaffold of a Janus kinase inhibitor” (RSC Medicinal Chemistry, 2025)
Like-named read-outs stand apart in the source and are kept apart here. Each block holds one compound with its values, some of them ahead of it.

How the values were obtained:
TYK2 [1] = target: T1, TYK2 (Homo sapiens, UniProt P29597); assay: biochemical; set-up: Eurofins Cerep biochemical enzymatic kinase assay, per cent inhibition at a single concentration, duplicate
From the text: (§1) Spiro diamines containing a deazapurine ring are known JAK inhibitors.[35]

JAK2 [2] = target: T2, JAK2 (Homo sapiens, UniProt O60674); assay: biochemical; set-up: Eurofins Cerep biochemical enzymatic kinase assay, per cent inhibition at a single concentration, duplicate
From the text: as §1

JAK3 [3] = target: T3, JAK3 (Homo sapiens, UniProt P52333); assay: biochemical; set-up: Eurofins Cerep biochemical enzymatic kinase assay, per cent inhibition at a single concentration, duplicate; details: read-out: % of inhibition ^a / JAK3
T3 sequence (P52333 1-1124): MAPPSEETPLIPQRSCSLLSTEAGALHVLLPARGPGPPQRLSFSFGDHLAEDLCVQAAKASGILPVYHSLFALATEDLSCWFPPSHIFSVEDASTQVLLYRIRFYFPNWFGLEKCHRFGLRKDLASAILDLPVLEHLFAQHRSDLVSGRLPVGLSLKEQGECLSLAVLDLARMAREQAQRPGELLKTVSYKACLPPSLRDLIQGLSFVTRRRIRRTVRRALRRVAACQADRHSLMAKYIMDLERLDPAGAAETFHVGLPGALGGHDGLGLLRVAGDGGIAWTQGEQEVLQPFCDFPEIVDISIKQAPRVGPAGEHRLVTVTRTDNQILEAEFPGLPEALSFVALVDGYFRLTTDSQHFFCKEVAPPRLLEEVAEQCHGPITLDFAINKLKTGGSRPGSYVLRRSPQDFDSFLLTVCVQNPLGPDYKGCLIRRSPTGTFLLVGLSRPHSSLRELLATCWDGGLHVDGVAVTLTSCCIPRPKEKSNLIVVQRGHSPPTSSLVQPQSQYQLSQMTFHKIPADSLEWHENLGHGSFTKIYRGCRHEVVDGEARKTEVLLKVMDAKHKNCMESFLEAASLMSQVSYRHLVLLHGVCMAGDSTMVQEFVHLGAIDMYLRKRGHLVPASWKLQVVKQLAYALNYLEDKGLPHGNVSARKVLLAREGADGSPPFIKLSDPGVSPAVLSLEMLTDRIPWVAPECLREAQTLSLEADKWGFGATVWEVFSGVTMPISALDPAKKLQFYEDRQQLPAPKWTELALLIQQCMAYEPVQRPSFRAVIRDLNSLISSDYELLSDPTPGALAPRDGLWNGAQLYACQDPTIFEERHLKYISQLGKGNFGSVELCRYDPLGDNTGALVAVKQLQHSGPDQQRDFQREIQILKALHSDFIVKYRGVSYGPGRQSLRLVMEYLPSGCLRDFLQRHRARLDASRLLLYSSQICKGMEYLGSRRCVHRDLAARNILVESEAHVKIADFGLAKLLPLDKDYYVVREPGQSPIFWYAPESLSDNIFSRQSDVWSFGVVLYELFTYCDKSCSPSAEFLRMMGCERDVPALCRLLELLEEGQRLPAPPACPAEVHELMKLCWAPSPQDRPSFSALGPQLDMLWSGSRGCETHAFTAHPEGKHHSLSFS

JAK1 [4] = target: T4, JAK1 (Homo sapiens, UniProt P23458); assay: biochemical enzymatic kinase assay, % inhibition at […]
TYK2 [5] = target: T1, TYK2; assay: biochemical; set-up: radiometric filter-binding kinase inhibition assay (Eurofins Cerep), scintillation counting
Procedure: (§2) Given the structural similarities between the expanded ring analogues 16a and 16b and the previously described inhibitor KMC420, we initially evaluated their activity at 0.1 μM against JAK1, JAK2, JAK3, and TYK2, using biochemical enzymatic assays provided by Eurofins Cerep SA.

JAK1 [6] = target: T4, JAK1; assay: biochemical; set-up: radiometric filter-binding kinase inhibition assay (Eurofins Cerep), scintillation counting
Procedure: as §2

JAK2 [7] = target: T2, JAK2; assay: biochemical; set-up: radiometric filter-binding kinase inhibition assay (Eurofins Cerep), scintillation counting
Procedure: as §2

JAK3 [8] = target: T3, JAK3; assay: biochemical; set-up: radiometric filter-binding kinase inhibition assay (Eurofins Cerep), scintillation counting
Procedure: as §2

JAK1 [9] = target: T4, JAK1; assay: biochemical enzymatic kinase assay (Eurofins Cerep), IC50 curve
JAK3 [10] = target: T3, JAK3; assay: biochemical enzymatic kinase assay, % inhibition at […]
TYK2 [11] = target: T1, TYK2; assay: as above
JAK1 [12] = target: T4, JAK1; assay: biochemical; set-up: Eurofins Cerep biochemical enzymatic kinase assay, per cent inhibition at a single concentration, duplicate
Procedure: Given the structural similarities between the expanded ring analogues 16a and 16b and the previously described inhibitor KMC420, we initially evaluated their activity at 0.1 μM against JAK1, JAK2, JAK3, and TYK2, using biochemical enzymatic assays provided by Eurofins Cerep SA. […] Spiro diamines containing a deazapurine ring are known JAK inhibitors.[35] […] However, this compound was not tested against the other JAK enzymes. Due to its similarity to our potent compound 40a, we decided to investigate its inhibitory activity against the four enzymes at a concentration of 0.1 μM. […] To investigate the binding differences between 40a and (R)-KMC420, we performed docking studies with DOCK6 using the JAK1 co-crystal structure with tofacitinib (PDB 3EYG) as receptor.

JAK1 [13] = target: T4, JAK1; assay: biochemical enzymatic kinase assay, % inhibition at […]; remark: listed apart in the source

T4 sequence (P23458 whole entry): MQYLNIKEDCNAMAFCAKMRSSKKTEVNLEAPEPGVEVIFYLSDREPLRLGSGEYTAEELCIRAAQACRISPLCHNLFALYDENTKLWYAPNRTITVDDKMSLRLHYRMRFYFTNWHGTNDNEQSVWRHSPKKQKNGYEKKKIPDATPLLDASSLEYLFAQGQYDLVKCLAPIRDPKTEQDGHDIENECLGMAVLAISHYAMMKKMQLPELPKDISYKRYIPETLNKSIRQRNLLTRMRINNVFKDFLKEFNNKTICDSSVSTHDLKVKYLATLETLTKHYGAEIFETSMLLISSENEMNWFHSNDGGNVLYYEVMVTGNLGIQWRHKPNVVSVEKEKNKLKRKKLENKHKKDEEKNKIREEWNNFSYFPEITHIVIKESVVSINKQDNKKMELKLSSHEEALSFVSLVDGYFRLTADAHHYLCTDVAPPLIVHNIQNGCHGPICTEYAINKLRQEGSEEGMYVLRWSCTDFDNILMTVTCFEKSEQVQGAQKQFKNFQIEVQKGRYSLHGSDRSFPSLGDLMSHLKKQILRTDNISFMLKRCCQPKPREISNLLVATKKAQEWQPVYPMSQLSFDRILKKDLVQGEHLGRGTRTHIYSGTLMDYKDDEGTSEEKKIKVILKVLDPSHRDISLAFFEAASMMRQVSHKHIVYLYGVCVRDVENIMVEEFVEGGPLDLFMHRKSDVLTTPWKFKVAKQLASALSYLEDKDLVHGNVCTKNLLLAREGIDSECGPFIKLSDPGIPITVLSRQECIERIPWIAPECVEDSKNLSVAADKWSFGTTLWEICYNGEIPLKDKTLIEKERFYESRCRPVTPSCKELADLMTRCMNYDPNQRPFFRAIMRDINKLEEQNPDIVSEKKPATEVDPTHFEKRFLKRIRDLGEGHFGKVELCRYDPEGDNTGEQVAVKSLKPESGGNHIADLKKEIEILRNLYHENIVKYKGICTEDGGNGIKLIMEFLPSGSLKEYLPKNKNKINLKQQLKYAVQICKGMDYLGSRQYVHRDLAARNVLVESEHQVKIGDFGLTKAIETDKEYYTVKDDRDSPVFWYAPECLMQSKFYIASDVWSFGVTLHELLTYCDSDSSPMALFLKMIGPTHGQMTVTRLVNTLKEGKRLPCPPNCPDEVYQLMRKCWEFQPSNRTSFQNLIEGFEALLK
T2 sequence (O60674 whole entry): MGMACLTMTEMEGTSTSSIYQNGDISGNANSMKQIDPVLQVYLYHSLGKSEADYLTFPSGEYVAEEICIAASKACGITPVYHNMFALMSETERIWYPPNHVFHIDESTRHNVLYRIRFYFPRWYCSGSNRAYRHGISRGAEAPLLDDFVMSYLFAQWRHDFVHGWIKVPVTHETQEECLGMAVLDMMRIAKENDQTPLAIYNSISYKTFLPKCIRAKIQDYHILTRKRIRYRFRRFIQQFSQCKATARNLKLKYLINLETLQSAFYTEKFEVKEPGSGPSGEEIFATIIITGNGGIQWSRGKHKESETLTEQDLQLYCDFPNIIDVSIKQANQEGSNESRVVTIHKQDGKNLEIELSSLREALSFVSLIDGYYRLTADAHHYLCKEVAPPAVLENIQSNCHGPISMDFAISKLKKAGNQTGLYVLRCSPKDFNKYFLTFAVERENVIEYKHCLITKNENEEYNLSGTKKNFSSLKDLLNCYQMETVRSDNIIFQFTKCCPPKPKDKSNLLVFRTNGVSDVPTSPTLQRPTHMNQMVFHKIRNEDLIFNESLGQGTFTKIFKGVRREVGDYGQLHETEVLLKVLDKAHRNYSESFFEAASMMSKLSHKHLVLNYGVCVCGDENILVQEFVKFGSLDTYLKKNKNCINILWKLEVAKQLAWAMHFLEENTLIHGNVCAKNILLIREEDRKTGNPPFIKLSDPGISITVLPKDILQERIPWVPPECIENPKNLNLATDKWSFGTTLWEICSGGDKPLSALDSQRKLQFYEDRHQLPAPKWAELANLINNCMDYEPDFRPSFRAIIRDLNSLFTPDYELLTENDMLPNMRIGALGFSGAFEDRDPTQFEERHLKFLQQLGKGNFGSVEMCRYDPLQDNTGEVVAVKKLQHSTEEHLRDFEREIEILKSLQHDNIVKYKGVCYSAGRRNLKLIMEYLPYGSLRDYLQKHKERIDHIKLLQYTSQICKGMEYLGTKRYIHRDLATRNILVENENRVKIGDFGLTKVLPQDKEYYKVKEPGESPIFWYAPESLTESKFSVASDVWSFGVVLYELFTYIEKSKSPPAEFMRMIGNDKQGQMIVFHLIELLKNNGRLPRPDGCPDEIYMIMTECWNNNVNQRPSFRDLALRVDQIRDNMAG
T1 sequence (P29597 whole entry): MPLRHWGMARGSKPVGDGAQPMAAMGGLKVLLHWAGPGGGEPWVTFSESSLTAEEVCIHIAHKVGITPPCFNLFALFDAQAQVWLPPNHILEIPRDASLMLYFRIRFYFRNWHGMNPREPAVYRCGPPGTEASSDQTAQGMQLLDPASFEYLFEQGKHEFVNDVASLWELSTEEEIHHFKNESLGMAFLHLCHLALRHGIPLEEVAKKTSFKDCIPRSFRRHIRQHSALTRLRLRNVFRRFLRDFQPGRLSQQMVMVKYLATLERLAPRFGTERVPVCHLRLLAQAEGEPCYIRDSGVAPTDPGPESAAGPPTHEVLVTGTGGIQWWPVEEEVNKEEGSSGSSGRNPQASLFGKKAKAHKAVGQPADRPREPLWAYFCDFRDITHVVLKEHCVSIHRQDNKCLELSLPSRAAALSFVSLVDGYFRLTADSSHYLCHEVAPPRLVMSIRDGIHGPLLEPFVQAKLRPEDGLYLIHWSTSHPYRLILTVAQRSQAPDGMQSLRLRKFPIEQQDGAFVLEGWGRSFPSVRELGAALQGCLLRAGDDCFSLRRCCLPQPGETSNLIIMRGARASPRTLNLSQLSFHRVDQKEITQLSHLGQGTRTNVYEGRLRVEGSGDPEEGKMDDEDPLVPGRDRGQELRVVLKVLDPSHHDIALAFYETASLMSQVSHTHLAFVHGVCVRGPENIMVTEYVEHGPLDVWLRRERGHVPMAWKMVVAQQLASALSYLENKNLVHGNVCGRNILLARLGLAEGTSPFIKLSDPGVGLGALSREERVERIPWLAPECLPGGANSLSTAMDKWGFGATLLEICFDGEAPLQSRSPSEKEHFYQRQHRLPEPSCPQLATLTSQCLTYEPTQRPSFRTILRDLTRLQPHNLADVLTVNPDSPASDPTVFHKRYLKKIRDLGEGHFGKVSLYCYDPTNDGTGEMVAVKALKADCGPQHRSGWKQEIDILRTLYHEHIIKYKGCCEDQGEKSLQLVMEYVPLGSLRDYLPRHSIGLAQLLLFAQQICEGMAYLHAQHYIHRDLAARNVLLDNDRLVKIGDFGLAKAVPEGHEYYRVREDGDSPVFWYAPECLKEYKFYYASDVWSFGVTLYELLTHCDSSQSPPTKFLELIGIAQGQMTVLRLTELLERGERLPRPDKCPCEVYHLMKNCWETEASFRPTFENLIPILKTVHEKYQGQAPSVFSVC

Structure (SMILES): C[C@]12CCN(c3ncnc4[nH]ccc34)[C@H]1CC[C@@H]2NC(=O)CC#N [(R,S,S)-40a]
IC50 (JAK1 [9]): 69 nM

Structure (SMILES): C[C@@]12CCN(c3ncnc4[nH]ccc34)[C@@H]1CC[C@H]2NC(=O)CC#N [(S,R,R)-40a]
IC50 (JAK1 [9]): 18 nM

Structure (SMILES): C=CC(=O)NC1CCC2N(c3ncnc4[nH]ccc34)CCC12C (stereo not shown) [34b]
inhibition at 1 µM (TYK2 [1]): 23 ± 5%
inhibition at 1 µM (JAK2 [2]): 27 ± 3%
inhibition at 1 µM (JAK3 [3]): 38 ± 1%
inhibition at 1 µM (JAK1 [12]): 73 ± 1%

Structure (SMILES): C[C@]12CCN(c3ncnc4[nH]ccc34)[C@H]1CC[C@H]2NC#N (racemic) [34c]
inhibition at 1 µM (TYK2 [1]): 53 ± 5%
inhibition at 1 µM (JAK2 [2]): 45 ± 8%
inhibition at 1 µM (JAK1 [13]): 89 ± 2%
inhibition at 1 µM (JAK3 [3]): 43 ± 3%

Structure (SMILES): CCS(=O)(=O)N1CCC2(C)C(Nc3ncnc4[nH]ccc34)CCC12 (stereo not shown) [36d]
inhibition at 10 µM (TYK2 [1]): 67 ± 1%
inhibition at 10 µM (JAK2 [2]): 51 ± 3%
inhibition at 10 µM (JAK3 [3]): 42 ± 3%
inhibition at 10 µM (JAK1 [12]): 86 ± 1%
inhibition at 1 µM (TYK2 [5]): 53%
inhibition at 10 µM (TYK2 [5]): 97%
inhibition at 1 µM (JAK1 [6]): 45%
inhibition at 10 µM (JAK1 [6]): 99%
inhibition at 1 µM (JAK2 [7]): 11%
inhibition at 10 µM (JAK2 [7]): 98%
inhibition at 1 µM (JAK3 [8]): 44%
inhibition at 10 µM (JAK3 [8]): 96%

Structure (SMILES): CCS(=O)(=O)N[C@@H]1CC[C@@H]2N(c3ncnc4[nH]ccc34)CC[C@@]21C (racemic) [34d]
inhibition at 1 µM (TYK2 [1]): 56 ± 1%
inhibition at 1 µM (JAK2 [2]): 61 ± 1%
inhibition at 1 µM (JAK1 [13]): 88 ± 1%
inhibition at 1 µM (JAK3 [3]): 45 ± 6%

Structure (SMILES): C=CC(=O)N1CCC2(C)C(Nc3ncnc4[nH]ccc34)CCC12 (stereo not shown) [36b]
inhibition at 10 µM (TYK2 [1]): 52%
inhibition at 10 µM (JAK2 [2]): 47 ± 2%
inhibition at 10 µM (JAK3 [3]): 63 ± 1%
inhibition at 10 µM (JAK1 [12]): 84 ± 2%

Structure (SMILES): CC12CCN(C(=O)CC#N)C1CCC2Nc1ncnc2[nH]ccc12 (stereo not shown) [36a]
inhibition at 10 µM (TYK2 [1]): 75 ± 2%
inhibition at 10 µM (JAK2 [2]): 60%
inhibition at 10 µM (JAK1 [12]): 94%

Structure (SMILES): CC12CCN(c3ncnc4[nH]ccc34)C1CCC2NC(=O)CC#N (stereo not shown) [34a]
inhibition at 1 µM (TYK2 [1]): 41 ± 6%
inhibition at 1 µM (JAK2 [2]): 41 ± 5%
inhibition at 1 µM (JAK3 [3]): 43 ± 5%
inhibition at 1 µM (JAK1 [12]): 85 ± 1%

Structure (SMILES): CC12CCN(C#N)C1CCC2Nc1ncnc2[nH]ccc12 (stereo not shown) [36c]
inhibition at 10 µM (TYK2 [1]): 74 ± 3%
inhibition at 10 µM (JAK2 [2]): 80 ± 3%
inhibition at 10 µM (JAK1 [12]): 92%

Next, values leading:

inhibition at 0.1 µM (TYK2 [1]): 16 ± 2%
inhibition at 0.1 µM (JAK2 [2]): 8 ± 1%
inhibition at 0.1 µM (JAK3 [3]): 4 ± 1%
inhibition at 0.1 µM (JAK1 [4]): 59 ± 2%
inhibition at 1 µM (TYK2 [5]): 70%
inhibition at 10 µM (TYK2 [5]): 100%
inhibition at 1 µM (JAK1 [6]): 93%
inhibition at 10 µM (JAK1 [6]): 100%
inhibition at 1 µM (JAK2 [7]): 52%
inhibition at 10 µM (JAK2 [7]): 96%
inhibition at 1 µM (JAK3 [8]): 55%
inhibition at 10 µM (JAK3 [8]): 99%
Structure (SMILES): C=CC(=O)N[C@H]1CC[C@@H]2N(c3ncnc4[nH]ccc34)CC[C@]12C (racemic) [40b]

inhibition at 0.1 µM (JAK2 [2]): 18 ± 6%
inhibition at 0.1 µM (JAK3 [10]): 58 ± 1%
inhibition at 0.1 µM (JAK1 [4]): 70 ± 2%
inhibition at 1 µM (TYK2 [5]): 92%
inhibition at 10 µM (TYK2 [5]): 91%
inhibition at 1 µM (JAK1 [6]): 95%
inhibition at 10 µM (JAK1 [6]): 100%
inhibition at 1 µM (JAK2 [7]): 58%
inhibition at 10 µM (JAK2 [7]): 85%
inhibition at 1 µM (JAK3 [8]): 96%
inhibition at 10 µM (JAK3 [8]): 79%
inhibition at 0.1 µM (TYK2 [11]): 61%
Structure (SMILES): C[C@]12CCN(c3ncnc4[nH]ccc34)[C@H]1CC[C@@H]2NC#N (racemic) [40c]

inhibition at 1 µM (TYK2 [1]): 34 ± 8%
inhibition at 1 µM (JAK2 [2]): 54 ± 6%
inhibition at 1 µM (JAK3 [3]): 22 ± 1%
inhibition at 1 µM (JAK1 [12]): 87 ± 1%
Structure (SMILES): CCS(=O)(=O)N1CCC2(CCN(c3ncnc4[nH]ccc34)C2)C1 (stereo not shown) [43d]

inhibition at 1 µM (TYK2 [1]): 63 ± 2%
inhibition at 1 µM (JAK2 [2]): 59 ± 4%
inhibition at 1 µM (JAK1 [13]): 93 ± 1%
inhibition at 1 µM (JAK3 [3]): 26 ± 1%
Structure (SMILES): N#CN1CCC2(CCN(c3ncnc4[nH]ccc34)C2)C1 (racemic) [43c]

inhibition at 0.1 µM (TYK2 [1]): 29 ± 3%
inhibition at 0.1 µM (JAK2 [2]): 3 ± 1%
inhibition at 0.1 µM (JAK3 [3]): 27 ± 1%
inhibition at 0.1 µM (JAK1 [12]): 80 ± 3%
inhibition at 1 µM (TYK2 [5]): 82%
inhibition at 10 µM (TYK2 [5]): 95%
inhibition at 1 µM (JAK1 [6]): 99%
inhibition at 10 µM (JAK1 [6]): 99%
inhibition at 1 µM (JAK2 [7]): 72%
inhibition at 10 µM (JAK2 [7]): 91%
inhibition at 1 µM (JAK3 [8]): 79%
inhibition at 10 µM (JAK3 [8]): 89%
Structure (SMILES): CC12CCN(c3ncnc4[nH]ccc34)C1CCC2NC(=O)CC#N (stereo not shown) [40a]

inhibition at 0.1 µM (TYK2 [1]): 11 ± 12%
inhibition at 0.1 µM (JAK2 [2]): 1 ± 8%
inhibition at 0.1 µM (JAK3 [3]): -10 ± 11%
inhibition at 0.1 µM (JAK1 [12]): 28 ± 6%
inhibition at 1 µM (JAK1 [6]): 76%
inhibition at 1 µM (JAK2 [7]): 38%
inhibition at 1 µM (JAK3 [8]): 11%
Structure (SMILES): CCS(=O)(=O)NC1CCC2N(c3ncnc4[nH]ccc34)CCC12C (stereo not shown) [40d]
